Where no end group is shown, it is not given here.
How the values were obtained:
[1] = system: growth hormone release; experiment: Peptide effects on growth hormone release in the pentobarbital-anesthetized rat (plasma GH by RIA); assay type: in vivo
Method: In this evaluation, the procedures described by W. A. Murphy et al., Endocrinology 109: 491-495 (1980), were employed.
In growth hormone (GH) experiments, male rats (Charles Rivers) were anesthetized with NEMBUTAL® (6 mg per 100 g body weight) which also served to maintain stimulated plasma GH levels. Exactly 30 minutes after the rats were anesthetized, 0.5 mL of saline or the test peptide in saline was administered as a SC bolus. A 1 mL blood sample was drawn from the jugular vein 15 minutes after the injection of the peptide in saline or at the indicated times in the time course assay (p26). GH levels were determined using NIADDKD rat GH RIA components.

[2] = system: plasma growth hormone; experiment: Evaluation of peptides in vivo in sheep: plasma GH levels in lambs injected intravenously at 100 ng/kg; details: for Plasma GH Peak / Plasma GH Post-inj Mean: 100 ng/kg IV; for Plasma GH Peak: control 12.2; for Plasma GH Post-inj Mean: two hours after treatment, means of 8 samples/animal from 8 animals, control 8.7; for Plasma GH Pre-inj Mean: before IV injection of 100 ng/kg, means of 5 samples/animal from 8 animals, control 8.4
Method: The purpose of this experiment is to compare the GH releasing activities of several GRF analogs selected for expected high potency and the lack of either a terminal amide or a D-amino acid. The analogs to be compared in wether lambs at 100 ng/kg (IV) are tri-isopropyl-GRF(1-29)-NH2, tri-isopropyl-GRF(1-29)-OH, tri-isopropyl-GRF(1-40)OH, D-ala^2, arg^12,21 -GRF (1-29)-OH, D-ala^2, arg^12,21 -GRF(1-29)-NH2, GRF(1-40)-OH and GRF(1-29)-NH2
A balanced 8×8 Latin square design will be used to test the following 8 treatments:
Sheep are maintained in individual metabolism cages at all times. Each sheep has previously received an indwelling jugular cannula which is flushed daily with heparinized (400-800 IU/ml) sterile saline to help maintain […].
All compounds are solubilized at 5 ug/ml in sterile saline containing 1% Tween 80 and injected intravenously at 100 ng/kg. Control lambs receive equal volumes of the vehicle only. The drugs are prepared each day just prior to injection to minimize sticking to the vials.
Blood is collected in heparinized tubes at 15 minute intervals for one hour prior to and for two hours after the treatments are administered. Plasma samples are removed by centrifugation and frozen.
Blood samples are taken from each animal at 15 minute intervals for 3 hours each day during the 8 day trial period. The samples are analyzed for plasma growth hormone (ng/ml). Data obtained are reported below as near values obtained for each treatment.

## CC[C@H](C)[C@H](NC(=O)[C@H](C)NC(=O)[C@H](CC(=O)O)NC(=O)[C@H](C)NC(=O)[C@H](Cc1ccc(O)cc1)NC)C(=O)N[C@@H](Cc1ccccc1)C(=O)N[C@H](C(=O)N[C@@H](CC(N)=O)C(=O)N[C@@H](CO)C(=O)N[C@@H](Cc1ccc(O)cc1)C(=O)N[C@@H](CCCNC(=N)N)C(=O)N[C@@H](CCCCN)C(=O)N[C@H](C(=O)N[C@@H](CC(C)C)C(=O)NCC(=O)N[C@@H](CCC(N)=O)C(=O)N[C@@H](CC(C)C)C(=O)N[C@@H](CO)C(=O)N[C@@H](C)C(=O)N[C@@H](CCCNC(=N)N)C(=O)N[C@@H](CCCCN)C(=O)N[C@@H](CC(C)C)C(=O)N[C@@H](CC(C)C)C(=O)N[C@@H](CCC(N)=O)C(=O)N[C@@H](CC(=O)O)C(=O)N[C@H](C(=O)N[C@@H](CCSC)C(=O)N[C@@H](CO)C(=O)N[C@@H](CCCNC(=N)N)C(N)=O)[C@@H](C)CC)C(C)C)[C@@H](C)O [N^α MeTry^1, [N α-MeTyr^1]hpGRF(1-29)-NH2, reference compound]
[1]; dose 30 ug/100 g BW SC, blood 15 min after injection, saline control 243 ± 25
  PLASMA GH: 1843 ± 196 ng/mL
[1]; dose 75 ug/100 g BW SC, blood 15 min after injection, saline control 243 ± 25
  PLASMA GH: 2613 ± 418 ng/mL
[1]; relative to GRF(1-29)NH2 (=1) as standard, by 4point assay (95% CI limits in parentheses)
  POTENCY: 0.42

## GRF(1-40)-OH (YADAIFTNSYRKVLGQLSARKLLQDIMSRQQGESNQERGA-OH; UniProt P01286 32-71, looked up, fragment) [unalkylated human GRF(1-40) free acid, comparator in the sheep test, reference compound]
[2]
  Plasma GH Peak: 92.3 ng/mL
  Plasma GH Post-inj Mean: 25.5 ng/mL
  Plasma GH Pre-inj Mean: 9.4 ng/mL

## [N ^α -Isopropyl-Tyr^1, N ^ε -isopropyl-Lys^12,21 ]GRF(1-40)OH [tri-isopropyl-GRF(1-40)-OH]
[2]
  Plasma GH Peak: 108.6 ng/mL
  Plasma GH Post-inj Mean: 34.0 ng/mL
  Plasma GH Pre-inj Mean: 9.5 ng/mL

## [N^α -Isopropyl-Tyr^1 ]GRF(1-29)NH2 [N^α iPrTyr^1]
[1]; dose 0.2 ug/100 g BW SC, 15 min, saline control 325 ± 52
  PLASMA GH: 1334 ± 394 ng/mL
[1]; dose 2 ug/100 g BW SC, 15 min, saline control 325 ± 52
  PLASMA GH: 3250 ± 362 ng/mL
[1]; dose 20 ug/100 g BW SC, 15 min, saline control 325 ± 52
  PLASMA GH: 3290 ± 241 ng/mL
[1]; relative to GRF(1-29)NH2 (=1), estimated by single dose comparisons to pooled standard responses
  POTENCY: ~ 60

— patent US5112808A, “Alkylated hormone-releasing peptides and method of treatig mammals therewith” (American Cyanamid Company, priority 1988, dated 1992)
